# From US20250115865A1, “MAMMALIAN SPERM PREPARATION METHOD, ARTIFICIAL INSEMINATION METHOD, IN-VITRO FERTILIZATION METHOD, AND MEDIUM” (Hiroshima University, priority 2022, published 2025)
# Assays:
# [1] = test system: pig sperm; experiment: Pig artificial insemination with treated semen, sex of offspring; format: in vivo; settings: semen treated in modified HTF medium pH 7.8, R848 3 nM, 60 minutes, 37° C.
# Protocol: Pig semen diluted to 5 billion/100 mL with Hiro Swine B solution was centrifuged (500 G, 5 minutes, room temperature), and then the supernatant was discarded. The pig sperm were suspended in the same amount of modified HTF medium (pH 7.8, supplemented with R848 (3 nM)), and then cultured in a thermostat (60 minutes, 37° C.). Thereafter, centrifugation (500 G, 5 minutes, room temperature) was carried out, and the supernatant was discarded. Subsequently, the sperm were suspended in a diluent for artificial insemination, and then subjected to artificial insemination.
# [2] = test system: mouse sperm; experiment: Mouse in vitro fertilization with treated sperm, sex of blastocyst embryos by real-time PCR; format: cell-based; settings: sperm treated with R848 3 nM
# Protocol: Sperm were collected from the cauda epididymis of 12-week-old mature male mice. The mouse sperm were cultured in modified HTF medium (Glu medium, pH 7.8, supplemented with R848 (3 nM)) (60 minutes, 37° C.). In vitro fertilization was performed using sperm cultured in the same manner as in Experiment 7. Five days later, sperm that reached blastocyst embryos were collected, and the ratio between X-sperm and Y-sperm was calculated by real-time PCR.
# [3] = test system: mouse sperm; experiment: Mouse artificial insemination with treated sperm, sex of blastocyst embryos; format: in vivo; settings: sperm treated with R848 3 nM, Glu medium pH 7.8, 60 minutes, 5/6 embryos
# Protocol: Sperm were collected from the cauda epididymis of 12-week-old mature male mice. The mouse sperm were cultured in modified HTF medium (Glu medium, pH 7.8, supplemented with R848 (3 nM)) (60 minutes, 37° C.). Sperm cultured in the same manner as in Experiment 7 were subjected to artificial insemination, and the resulting blastocyst embryos were collected. As a result, 83.3% (5/6) of the embryos were female embryos.
# [4] = test system: bovine sperm; experiment: Acrosome retention rate of bovine sperm after culture and swim-up; format: cell-based; settings: freeze-thawed bovine sperm, Glu medium pH 7.7, R848 3 nM, 30 minutes room temperature, swim-up from 1% PVP 15 minutes; FIG. 7
# Protocol: Freeze-thawed bovine sperm, thawed and washed in modified HTF medium, were cultured in modified HTF medium (Glu medium, pH 7.7, supplemented with R848 (3 nM)) (30 minutes, room temperature). Centrifugation was carried out, and then the supernatant was discarded. Subsequently, the sperm were resuspended in modified HTF medium supplemented with 1% PVP and R848 (3 nM), and then placed under PVP-free modified HTF medium to form a lower layer. Fifteen minutes later, 1.5 mL of the upper layer and 0.5 mL of the lower layer were collected. Each layer was subjected to acrosome staining, and the acrosome retention rate was determined.
# [5] = test system: bovine sperm; experiment: X-sperm/Y-sperm ratio of bovine lower-layer sperm by fluorescence in situ hybridization; format: cell-based; settings: freeze-thawed bovine sperm, Glu medium pH 7.7, R848 3 nM, swim-up, FISH, FIG. 8
# [6] = test system: bovine sperm; experiment: Bovine in vitro fertilization with upper-layer sperm, sex identification of blastocyst embryos by real-time PCR; format: cell-based; settings: modified HTF medium pH 7.4, R848 3 nM, 30 minutes room temperature, FIG. 9
# Protocol: Freeze-thawed bovine sperm, thawed and washed in modified HTF medium, were cultured in modified HTF medium (pH 7.4, supplemented with R848 (3 nM)) (30 minutes, room temperature). Centrifugation was carried out, and then the supernatant was discarded. Subsequently, the sperm were resuspended in modified HTF medium supplemented with 1% PVP and R848 (3 nM), and then placed under PVP-free modified HTF medium to form a lower layer. Fifteen minutes later, 1.5 mL of the upper layer was collected, washed, and then subjected to in vitro fertilization. Thereafter, the resulting blastocyst embryos were subjected to sex identification by real-time PCR.
# [7] = blastocyst embryos after five days, Glu medium pH 7.8, 22 individuals
structure (smiles),measurement,setting,value
"CCOCc1nc2c(N)nc3ccccc3c2n1CC(C)(C)O [R848, resiquimod]",Female ratio,[1],64%
same,Female (number of individuals),[1]; 36 individuals,23
same,Male (number of individuals),[1]; 36 individuals,13
same,Female (number of embryos),[2]; [7],17
same,Male (number of embryos),[2]; [7],5
same,Female ratio,"[2]; blastocyst embryos, Glu medium pH 7.8",77%
same,female embryos among blastocyst embryos,[3],83.3%
same,acrosome retention rate of the sperm in the upper layer,[4],70%
same,Y-sperm among the sperm in the lower layer,[5],84%
same,XX embryos (female embryos) among blastocyst embryos,[6],91%
